Series [1] can be described thus: in vitro. Type of series: in vitro ADME. Particulars: human, plasma. As to the method: Freezed human plasma (HFFPP100) was used after thawing. Powder of human alpha 1-acid glycoprotein (supplied by SIGMA Co., hereinafter abbreviated to AAG) was dissolved in a phosphate buffer solution (PBS, pH 7.0) to a concentration of 1 mg/ml. Drug solutions were prepared by dissolving the compounds synthesized in Example 1 and Reference Example 1 in dimethylsulfoxide in various concentrations.
The drug solutions (10 µl, each) with different concentrations were added to 990 µl the plasma or AAG solutions prepared above, stirred well and incubated for 18 hours at 37°C to equilibrate binding proteins. All amount of the solution was transferred to Micropartition Devices (Centrifree® , Millipore Co.) and filtered by centrifugation at 1500 x g for 20 minutes (using TOMY CX-210 high-speed cooling centrifugal machine). 200 µl of the filtrate was directly subjected to HPLC (Type: HITACHI D-7000, column: COSMOSIL (4.6* 250 mm, manufactured by Nacalai Tesque Co., Ltd.). The HPLC analysis was carried out by using a 59:41 (v/v) water-acetonitrile mixture containing 0.1% trifluoroacetic acid (TFA) as a mobile phase and measuring absorbance at 210 nm. The quantitative determination of unbound drug concentration was carried out based on the absolute calibration curve method using a calibration line obtained from the analysis of a standard sample which contains the drug at a known concentration. […]

Series [2] has as its system HIV virus (HIV-1 IIIB strain). The experiment in a line: Anti-HIV activity, cytopathic effect in CEM-SS cells by XTT dyeing, in the presence of 50% human blood serum. The series is classed as cell-based. To be noted: Human immunodeficiency virus 1, IIIB, in the presence of 50% human blood serums, read-out: IC50 value in an anti-virus test. As to the method: The anti-HIV activity of the compounds synthesized Examples 1-15 and Reference Examples 1-4 was measured according to the method reported by O. S. Weislow et al. (J. Natl. Cancer Inst. 81, 577-586, 1989) using CEM-SS cells as host cells and HIV virus (HIV-1 IIIB strain) (see T. Mimoto et al., J. Med. Chem., 42, 1789-1802, 1999, etc.).
Specifically, the compounds synthesized Examples 1-15 and Reference Examples 1-5 in various concentrations were added to a culture medium on 96-well microtiter plates. Human blood serum was added to a final concentration of 50%, then HIV infected CEM-SS cells was added, followed by incubation in a CO2 atmosphere at 37°C for 6 days. The cytopathic effect induced by HIV-1 IIIB was measured by tetrazolium dye XTT dyeing method to evaluate the 50% inhibitory concentration (IC50).
A general note: Damage to the host cells serves as the signal in cytopathic effect assays.

As a reminder, the fraction unbound is the share of the substance not bound to proteins or other matrix. As usually defined, the IC50 is the point on the concentration scale where inhibition reaches its midpoint.

In series [1], `COc1ccc(C[C@H](NC(=O)c2cccc(O)c2C)[C@H](O)C(=O)N2CSC(C)(C)[C@H]2C(=O)NCc2ccccc2C)cc1` [Example 1, (R)-N-(2-methylbenzyl)-3-[(2S,3S)-2-hydroxy-3-(3-hydroxy-2-methylbenzoyl)amino-4-(4-methoxyphenyl)butanoyl]-5,5-dimethyl-1,3-thiazolidine-4-carboxamide] had a fraction unbound at 18 h, 1 µM of 0.029. Further, in series [2], the IC50 worked out at 6 ng/mL.
`Cc1ccccc1CNC(=O)[C@H]1N(C(=O)[C@@H](O)[C@H](Cc2ccccc2)NC(=O)c2cccc(O)c2C)CSC1(C)C` [Reference Example 1, reference compound] showed a fraction unbound at 18 h, 1 µM in series [1] of 0.013.
